Measurements taken from DBAASP.
In brackets after ≈: the same amount, converted by molar mass. Values belong to the compound of their own block, whether it stands above or below them.

Experiments:
Experiment in all cases: ≥ marks a high value that may be exact or a test limit, other limits are often not marked, values filed in µg/mL are converted to µM
[1] = system: Neisseria gonorrhoeae FA19
[2] = system: Neisseria gonorrhoeae F62
[3] = system: Enterococcus faecalis 981
[4] = system: Nocardia asteroides 201118
[5] = system: Staphylococcus aureus ATCC 25923
[6] = system: Psychrobacter faecalis X29
Candida glabrata 090902 = system: Candida glabrata 090902
[7] = system: Bacillus subtilis KCTC 3068
[8] = system: Escherichia coli KCTC 2571
[9] = system: Pseudomonas aeruginosa KCTC 2004
[10] = system: Bacillus subtilis KCTC 1021
[11] = system: Salmonella typhimurium KCTC 1926
[12] = system: Staphylococcus aureus KCTC 1916
[13] = system: Staphylococcus aureus KCTC 1621
[14] = system: Bacillus subtilis KCTC 1022
[15] = system: Pseudomonas aeruginosa KCTC 2513
[16] = system: Staphylococcus aureus KCTC 3881
[17] = system: Staphylococcus epidermidis KCTC 1917
[18] = system: Escherichia coli KCTC 2593
[19] = system: Pseudomonas aeruginosa KCTC 1637
[20] = system: Escherichia coli KCTC 1682
Botrytis cinerea = system: Botrytis cinerea
[21] = system: Pectobacterium carotovorum subsp. carotovorum DSM 30168
Alternaria alternata = system: Alternaria alternata
[22] = system: Pseudomonas syringae pv. tomato DC3000
[23] = system: Pseudomonas corrugata DSM 7228
[24] = system: Pseudomonas syringae pv. syringae DSM 10604
Cladosporium herbarum = system: Cladosporium herbarum
[25] = system: Staphylococcus aureus 90857
[26] = system: Clavibacter michiganensis subsp. michiganensis DSM 46294
[27] = system: Xanthomonas vesicatoria DSM 50861
Escherichia coli BL21AI = system: Escherichia coli BL21AI
[28] = system: Micrococcus luteus ATCC 10240

Compound: CC[C@H](C)[C@H](NC(=O)[C@H](CC(C)C)NC(=O)CNC(=O)[C@@H]1CCCN1C(=O)[C@H](CC(C)C)NC(=O)[C@@H](N)Cc1ccccc1)C(=O)N[C@@H](CCCCN)C(=O)N[C@H](C(=O)N[C@@H](C)C(=O)N[C@H](C(=O)NCC(=O)N[C@H](C(=O)NCC(=O)N[C@@H](CO)C(=O)N[C@H](C(=O)N[C@H](C(=O)N[C@@H](CC(C)C)C(=O)N[C@H]1CSSC[C@@H](C(=O)O)NC(=O)[C@H](CCCCN)NC(=O)[C@H](CCCCN)NC(=O)[C@H]([C@@H](C)O)NC(=O)[C@H]([C@@H](C)CC)NC(=O)[C@H](CCCCN)NC1=O)[C@@H](C)CC)[C@@H](C)O)C(C)C)C(C)C)C(C)C [FLPGLIKVAVGVGSTILCKITKKC]
MIC [3]: 3.1 µM (≈ 7.71 µg/mL)
MIC [6]: ≥ 50 µM
MIC [4]: 3.1 µM (≈ 7.71 µg/mL)
MIC [5]: 6.3 µM (≈ 15.7 µg/mL)
MIC (Candida glabrata 090902): 6.3 µM (≈ 15.7 µg/mL)

Compound: CC[C@H](C)[C@H](NC(=O)CNC(=O)[C@H](CCCN=C(N)N)NC(=O)[C@H](Cc1c[nH]c2ccccc12)NC(=O)[C@@H](NC(=O)[C@H](Cc1cnc[nH]1)NC(=O)[C@H](Cc1cnc[nH]1)NC(=O)[C@H](Cc1ccccc1)NC(=O)[C@@H](N)Cc1ccccc1)[C@@H](C)CC)C(=O)N[C@H](C(=O)N[C@@H](Cc1cnc[nH]1)C(=O)N[C@H](C(=O)NCC(=O)N[C@@H](CCCCN)C(=O)N[C@H](C(=O)N[C@H](C(=O)N[C@@H](Cc1cnc[nH]1)C(=O)N[C@@H](CCCN=C(N)N)C(=O)N[C@@H](CC(C)C)C(=O)N[C@H](C(=O)N[C@H](C(=O)NCC(=O)O)[C@@H](C)O)C(C)C)[C@@H](C)CC)[C@@H](C)O)C(C)C)C(C)C [FFHHIWRGIVHVGKTIHRLVTG]
MIC [7]: 4 µM (≈ 10.4 µg/mL)
MIC [8]: 2 µM (≈ 5.22 µg/mL)
MIC [9]: 4 µM (≈ 10.4 µg/mL)
MIC [10]: 4 µM (≈ 10.4 µg/mL)
MIC [11]: 4 µM (≈ 10.4 µg/mL)
MIC [12]: 2 µM (≈ 5.22 µg/mL)
MIC [13]: 2 µM (≈ 5.22 µg/mL)
MIC [14]: 4 µM (≈ 10.4 µg/mL)
MIC [15]: 4 µM (≈ 10.4 µg/mL)
MIC [16]: 2 µM (≈ 5.22 µg/mL)
MIC [17]: 2 µM (≈ 5.22 µg/mL)
MIC [18]: 2 µM (≈ 5.22 µg/mL)
MIC [19]: 4 µM (≈ 10.4 µg/mL)
MIC [20]: 2 µM (≈ 5.22 µg/mL)

Compound: CC[C@H](C)[C@H](NC(=O)[C@H](CCCN=C(N)N)NC(=O)[C@H](CCCN=C(N)N)NC(=O)[C@@H]1CCCN1C(=O)[C@@H]1CCCN1C(=O)[C@H](CCCN=C(N)N)NC(=O)[C@@H]1CCCN1C(=O)[C@H](CCCN=C(N)N)NC(=O)[C@@H]1CCCN1C(=O)[C@H](CC(C)C)NC(=O)[C@H](Cc1ccc(O)cc1)NC(=O)[C@@H]1CCCN1C(=O)[C@@H]1CCCN1C(=O)[C@H](CCCCN)NC(=O)[C@H](CC(=O)O)NC(=O)[C@@H](N)C(C)C)C(=O)N[C@@H](Cc1ccc(O)cc1)C(=O)N[C@@H](CC(N)=O)C(=O)N[C@@H](CC(N)=O)C(N)=O [VDKPPYLPRPRPPRRIYNN]
MIC (Escherichia coli BL21AI): 6.81 µM (≈ 16 µg/mL)
MIC [28]: 27.2 µM (≈ 64 µg/mL)

Compound: CC[C@H](C)[C@H](NC(=O)[C@H](Cc1ccc(O)cc1)NC(=O)[C@@H](NC(=O)[C@@H]1CCCN1C(=O)[C@H](CCCN=C(N)N)NC(=O)[C@H](CC(N)=O)NC(=O)[C@H](CC(N)=O)NC(=O)CN)C(C)C)C(=O)N1CCC[C@H]1C(=O)N[C@@H](CCCN=C(N)N)C(=O)N1CCC[C@H]1C(=O)N[C@@H](CCCN=C(N)N)C(=O)N1CCC[C@H]1C(=O)N1CCC[C@H]1C(=O)N[C@@H](Cc1cnc[nH]1)C(=O)N1CCC[C@H]1C(=O)N[C@@H](CCCN=C(N)N)C(=O)N[C@@H](CC(C)C)C(=O)N[C@H](C(=O)O)C(C)C [GNNRPVYIPRPRPPHPRLV]
MIC (Escherichia coli BL21AI): 3.49 µM (≈ 7.81 µg/mL)
MIC [28]: 0.107 µM (≈ 0.24 µg/mL)

Compound: CC(C)C[C@H](N)C(=O)N[C@H]1CSSC[C@@H](C(=O)N[C@H](C(N)=O)C(C)C)NC(=O)[C@H](C(C)C)NC(=O)[C@H](C)NC(=O)[C@H](Cc2ccccc2)NC(=O)[C@H](CCCN=C(N)N)NC(=O)[C@H](CCCN=C(N)N)NC(=O)[C@H](CCCN=C(N)N)NC(=O)[C@H](C)NC(=O)[C@H](Cc2ccc(O)cc2)NC1=O [LCYARRRFAVCV]
MIC [1]: 7.65 µM (≈ 11.1 µg/mL)
MIC [2]: 1.1 µM (≈ 1.6 µg/mL)

The remaining lines, values ahead:

MIC [1]: ≥ 224 µM
MIC [2]: 10 µM (≈ 20.3 µg/mL)
Compound: CC(C)C[C@H](NC(=O)[C@H](CCCNC(=N)N)NC(=O)CNC(=O)CNC(=O)[C@@H](N)CCCNC(=N)N)C(=O)N[C@@H](C)C(=O)N[C@@H](Cc1ccc(O)cc1)C(=O)N[C@@H](C)C(=O)N[C@@H](CCCNC(=N)N)C(=O)N[C@@H](CCCNC(=N)N)C(=O)N[C@@H](CCCNC(=N)N)C(=O)N[C@@H](Cc1ccccc1)C(=O)N[C@@H](C)C(=O)N[C@H](C(=O)N[C@@H](C)C(=O)N[C@H](C(=O)NCC(=O)N[C@@H](CCCNC(=N)N)C(N)=O)C(C)C)C(C)C [RGGRLAYARRRFAVAVGR]

MIC [3]: ≥ 50 µM
MIC [4]: 12.5 µM (≈ 23.6 µg/mL)
MIC [5]: 25 µM (≈ 47.2 µg/mL)
Compound: CC[C@H](C)[C@H](NC(=O)[C@H](CCCCN)NC(=O)[C@@H]1CCCN1C(=O)[C@H](CC(C)C)NC(=O)[C@H](CC(C)C)NC(=O)[C@@H](NC(=O)[C@H](CO)NC(=O)[C@H](CC(C)C)NC(=O)[C@H](C)NC(=O)CNC(=O)[C@H](Cc1ccccc1)NC(=O)[C@H](CC(C)C)NC(=O)[C@H](CC(C)C)NC(=O)[C@@H]1CCCN1C(=O)[C@H](CC(C)C)NC(=O)[C@@H](N)Cc1ccccc1)[C@@H](C)O)C(=O)N[C@@H](Cc1ccccc1)C(N)=O [FLPLLFGALSTLLPKIF]

MIC (Botrytis cinerea): ≥ 64.5 µM
MIC [21]: 25.8 µM (≈ 40 µg/mL)
MIC (Alternaria alternata): ≥ 64.5 µM
MIC [22]: 0.645 µM (≈ 0.999 µg/mL)
MIC [23]: 1.29 µM (≈ 2 µg/mL)
MIC [24]: 1.29 µM (≈ 2 µg/mL)
MIC (Cladosporium herbarum): 6.45 µM (≈ 9.99 µg/mL)
MIC [25]: 25 µM (≈ 38.8 µg/mL)
MIC [26]: 0.645 µM (≈ 0.999 µg/mL)
MIC [27]: 1.29 µM (≈ 2 µg/mL)
Compound: CC(C)C[C@H](NC(=O)[C@H](CCCCN)NC(=O)[C@H](CC(C)C)NC(=O)[C@H](CCCN=C(N)N)NC(=O)[C@H](CCCCN)NC(=O)[C@H](CCCCN)NC(=O)[C@@H](N)CCCN=C(N)N)C(=O)N[C@@H](CC(C)C)C(=O)N[C@@H](CCCCN)C(=O)N[C@@H](CCCN=C(N)N)C(=O)N[C@@H](CC(C)C)C(=O)N[C@H](C(N)=O)C(C)C [RKKRLKLLKRLV]

MIC [7]: 2 µM (≈ 5.22 µg/mL)
MIC [8]: 2 µM (≈ 5.22 µg/mL)
MIC [9]: 4 µM (≈ 10.4 µg/mL)
MIC [10]: 2 µM (≈ 5.22 µg/mL)
MIC [11]: 2 µM (≈ 5.22 µg/mL)
MIC [12]: 2 µM (≈ 5.22 µg/mL)
MIC [13]: 2 µM (≈ 5.22 µg/mL)
MIC [14]: 2 µM (≈ 5.22 µg/mL)
MIC [15]: 4 µM (≈ 10.4 µg/mL)
MIC [16]: 2 µM (≈ 5.22 µg/mL)
MIC [17]: 2 µM (≈ 5.22 µg/mL)
MIC [18]: 2 µM (≈ 5.22 µg/mL)
MIC [19]: 4 µM (≈ 10.4 µg/mL)
MIC [20]: 2 µM (≈ 5.22 µg/mL)
Compound: CC[C@H](C)[C@H](NC(=O)CNC(=O)[C@H](CCCN=C(N)N)NC(=O)[C@H](Cc1ccccc1)NC(=O)[C@@H](NC(=O)[C@H](Cc1cnc[nH]1)NC(=O)[C@H](Cc1cnc[nH]1)NC(=O)[C@H](Cc1c[nH]c2ccccc12)NC(=O)[C@@H](N)Cc1ccccc1)[C@@H](C)CC)C(=O)N[C@H](C(=O)N[C@@H](Cc1cnc[nH]1)C(=O)N[C@H](C(=O)NCC(=O)N[C@@H](CCCCN)C(=O)N[C@H](C(=O)N[C@H](C(=O)N[C@@H](Cc1cnc[nH]1)C(=O)N[C@@H](CCCN=C(N)N)C(=O)N[C@@H](CC(C)C)C(=O)N[C@H](C(=O)N[C@H](C(=O)NCC(=O)O)[C@@H](C)O)C(C)C)[C@@H](C)CC)[C@@H](C)O)C(C)C)C(C)C [FWHHIFRGIVHVGKTIHRLVTG]
